Laboratory results reported in ChEMBL document CHEMBL1132471, “Vancomycin binding to low-affinity ligands: delineating a minimum set of interactions necessary for high-affinity binding” (J Med Chem, 1999).

Test: Affinity for Vancomycin (Exp I)

SMILES | Affinity [M⁻¹]
CC(=O)O[C@H](C)C(=O)O | 40
CC(=O)O | 15

Test: Affinity for Vancomycin (Exp II)

SMILES | Affinity [M⁻¹]
CC(=O)NCC(=O)O | 80
CC(=O)N[C@H](C)C(=O)O | 300
C[C@@H](O)C(=O)O | 80
CC(=O)O | 30
